Each structure is given as a SMILES string.

In this data set the target is Solute carrier organic anion transporter family member 2A1 (Homo sapiens, UniProt Q92959). The data set can be described thus: TP_TRANSPORTER: uptake in PGT-expressing HeLa cells. The data set is classed as functional, cell-based.
`CCCCC[C@H](O)/C=C/[C@H]1[C@H](O)CC(=O)[C@@H]1CCCCCCC(=O)O` [ALPROSTADIL] gave a K1/2 of 0.082 µM.

For the molecule `CCCCC[C@H](O)/C=C/[C@@H]1[C@@H](C/C=C\CCCC(=O)O)[C@@H](O)C[C@H]1O` [DINOPROST], the K1/2 is 0.092 µM.

For `CC#CCC(C)[C@H](O)/C=C/[C@@H]1[C@H]2C/C(=C/CCCC(=O)O)C[C@H]2C[C@H]1O` (stereo partly specified) [ILOPROST], the Activity entry is “is not a substrate [-]”.

As for `CCCCC[C@H](O)/C=C/[C@H]1OC(O)C[C@H](O)[C@@H]1C/C=C\CCCC(=O)O` (stereo partly specified) [THROMBOXANE B2], the K1/2 was determined as 0.182 µM.

In turn, `CCCCC[C@H](O)/C=C/[C@H]1[C@H](O)CC(=O)[C@@H]1C/C=C\CCCC(=O)O` [DINOPROSTONE] yielded a K1/2 of 0.1 µM.

On to `CCCCC[C@H](O)/C=C/[C@H]1C(=O)C[C@H](O)[C@@H]1C/C=C\CCCC(=O)O` [PROSTAGLANDIN D2], for which the K1/2 worked out at 0.083 µM.

The record behind these values is ChEMBL document CHEMBL2074086, “Cloning, in vitro expression, and tissue distribution of a human prostaglandin transporter cDNA(hPGT)” (J Clin Invest, 1996).
